Laboratory results reported in patent US20140314857A1, “FORMULATIONS FOR ENHANCED BIOAVAILABILITY OF ZANAMIVIR” (priority 2012, published 2014).
“And” between values parts separate entries of the source, which are not always exact repeats. Equal entries are not always repeated.

Test: Intravenous and intraduodenal bioavailability of zanamivir from three formulations (Example 5)
Details: for C0: extrapolated to t = 0; for concentration at 0.25 hr / concentration at 0.5 hr / concentration at 0.83 hr / concentration at 1 hr / concentration at 1.5 hr / concentration at 2 hr / concentration at 0.033 hr / concentration at 0.083 hr: 1.5 mg/animal, Plasma concentration; for clearance: CL; for Vd: Vss
From the text: Male Sprague-Dawley rats (Hilltop Labs), 3 animals per treatment group, 250-350 grams in weight, were fitted with a jugular vein cannula (JVC). Animals intended for intraduodenal dosing were also fitted with one or more intraduodenal cannula (IDC) and those intended for intravenous dosing were fitted with a second JVC. Food was withheld from the animals for a minimum of twelve hours prior to test article administration and was returned approximately four hours post-dose. Water was supplied ad libitum.
Intraduodenal doses composed of 1.5 mg of zanamivir and varying amounts of an enhancer (glycerol or Capmul MCM L8) were injected directly into the duodenum via the IDC. Intravenous dosing was conducted by the injection of 1.5 mg of zanamivir in 200 μL of PBS through a JVC. For some experiments, the absorption enhancer was administered intraduodenally 2 hr prior to administering 1.5 mg of zanamivir in PBS through a second IDC. Each intraduodenal dose was followed with the introduction of a small air bubble (˜10 μL) in the cannula followed by a flush of 125 μL of PBS to ensure the dose was given in full. The volume of PBS used for cannula flush was consistent across the treatment groups. The cannula was tied to prevent the PBS remaining in the cannula from entering the duodenum.
Blood samples collected via the JVC, approximately 400 μL each, were obtained at 2 min, 5 min, 15 min, 30 min, 60 min, 90 min, and 120 min, with sodium heparin used as an anti-coagulant. Each sample was placed into a chilled tube containing the anticoagulant and kept on ice until centrifugation at 4° C., 3,000×g, for 5 min. The plasma supernatants were stored at −70° C. until LC-MS analysis.
Dosing solution samples were assayed by LC-MS/MS using electrospray ionization. The chromatographic system consisted of Perkin Elmer series 200 micropumps and autosampler equipped with a Waters Atlantic® HILIC Silica 3 μM, 2.1×50 mm column. The mass spectrometer was a PE Sciex API 4000 with electrospray interface in multiple reaction monitoring mode. […] Stock solutions (1 mg/mL zanamivir) were prepared in water. Standards (eight concentrations) were prepared in the appropriate matched matrix (HBSSg or Sprague-Dawley rat plasma containing sodium heparin) and diluted 50-fold with methanol. Experimental samples were treated identically.
Standards and samples were prepared in Sprague Dawley rat plasma containing sodium heparin as an anticoagulant. An eight-point calibration curve was prepared at concentrations of 1000, 750, 500, 250, 100, 50, 25, and 10 ng/mL by serial dilution. Standard samples were treated identically to the study samples.
Plasma samples were extracted by protein precipitation in methanol.
In this example, the bioavailability of Zanamivir was evaluated after intravenous and intraduodenal doses in male Sprague-Dawley rats. The test compound was dosed at 1.5 mg/animal through intravenous and intraduodenal routes from different formulations. Plasma levels were determined by LC-MS/MS analysis. Pharmacokinetic parameters were estimated by a non-compartmental model using WinNonlin v4.1 software.

[1] = IV 1.5 mg/animal, Normal Saline, Ex.5, individual rats
[2] = male, Sprague-Dawley, rat, in vivo, ID 1.5 mg/animal, Capmul MCM L8 50 µL, Ex.5, mean
[3] = male, Sprague-Dawley, rat, in vivo, ID 1.5 mg/animal, Glycerol 50 µL, individual rats
[4] = male, Sprague-Dawley, rat, in vivo, ID 1.5 mg/animal, Glycerol 50 µL, mean
[5] = male, Sprague-Dawley, rat, in vivo, ID 1.5 mg/animal, PBS 50 µL, mean
[6] = male, Sprague-Dawley, rat, in vivo, ID 1.5 mg/animal, PBS 50 µL, individual rats
[7] = male, Sprague-Dawley, rat, in vivo, ID 1.5 mg/animal, PBS, 50 µL blank glycerol -2 hr, individual rats
[8] = male, Sprague-Dawley, rat, in vivo, ID 1.5 mg/animal, PBS, 50 µL blank glycerol -2 hr, mean
[9] = male, Sprague-Dawley, rat, in vivo, iv, 1.5 mg, IV 1.5 mg/animal, Normal Saline, Ex.5, individual rats
[10] = male, Sprague-Dawley, rat, in vivo, iv, 1.5 mg, IV 1.5 mg/animal, Normal Saline, Ex.5, mean
[11] = male, Sprague-Dawley, rat, in vivo, iv, IV 1.5 mg/animal, Normal Saline, Ex.5, individual rats
[12] = male, Sprague-Dawley, rat, in vivo, iv, IV 1.5 mg/animal, Normal Saline, Ex.5, mean

CC(=O)NC1C(NC(=N)N)C=C(C(=O)O)OC1C(O)C(O)CO (stereo not shown) [Zanamivir, 5-acetamido-4-guanidino-6-(1,2,3-trihydroxypropyl)-5,6-dihydro-4H-pyran-2-carboxylic acid]
T1/2 (ID 1.5 mg/animal, Capmul MCM L8 50 µL, Ex.5, individual rats): 27 min and 33 min
t1/2 (ID 1.5 mg/animal, PBS, 50 µL blank glycerol -2 hr, individual rats): 39.6 min and 110 min
Plasma concentration (IV 1.5 mg/animal, Normal Saline, Ex.5, 0.083 hr, individual rats): 17900 ng/mL and 16300 ng/mL
C0 [1]: 26943 ng/mL and 32278 ng/mL
CL [1]: 7.83 mL/min/kg and 8.67 mL/min/kg
Vss [1]: 0.26 L/kg
t1/2 [1]: 27.6 min
half-life (male, Sprague-Dawley, rat, in vivo, 1.5 mg, T1/2, ID 1.5 mg/animal, Capmul MCM L8 50 µL, Ex.5, individual rats): 28.2 min
half-life (male, Sprague-Dawley, rat, in vivo, 1.5 mg, T1/2, ID 1.5 mg/animal, Capmul MCM L8 50 µL, Ex.5, mean): 29.4 min
half-life (male, Sprague-Dawley, rat, in vivo, 1.5 mg, t1/2, ID 1.5 mg/animal, Glycerol 50 µL, individual rats): 17.4 min
half-life (male, Sprague-Dawley, rat, in vivo, 1.5 mg, t1/2, ID 1.5 mg/animal, Glycerol 50 µL, mean): 17.4 min
half-life (male, Sprague-Dawley, rat, in vivo, 1.5 mg, t1/2, ID 1.5 mg/animal, PBS 50 µL, individual rats): 49.8 min
half-life (male, Sprague-Dawley, rat, in vivo, 1.5 mg, t1/2, ID 1.5 mg/animal, PBS 50 µL, mean): 49.8 min
half-life (male, Sprague-Dawley, rat, in vivo, 1.5 mg, t1/2, ID 1.5 mg/animal, PBS, 50 µL blank glycerol -2 hr, mean): 74.4 min
Tmax (male, Sprague-Dawley, rat, in vivo, 1.5 mg, ID 1.5 mg/animal, Glycerol 50 µL, mean): 30 min
Tmax (male, Sprague-Dawley, rat, in vivo, 1.5 mg, ID 1.5 mg/animal, PBS 50 µL, individual rats): 30 min
Tmax (male, Sprague-Dawley, rat, in vivo, 1.5 mg, ID 1.5 mg/animal, PBS 50 µL, mean): 30 min
Tmax (male, Sprague-Dawley, rat, in vivo, 1.5 mg, ID 1.5 mg/animal, PBS, 50 µL blank glycerol -2 hr, mean): 34.8 min
concentration at 0.25 hr [2]: 4350 ng/mL
concentration at 0.5 hr [2]: 2910 ng/mL
concentration at 0.83 hr [2]: 7230 ng/mL
concentration at 1 hr [2]: 1080 ng/mL
concentration at 1.5 hr [2]: 578 ng/mL
concentration at 2 hr [2]: 274 ng/mL
concentration at 0.25 hr [3]: 1060 ng/mL
concentration at 0.25 hr [4]: 928 ng/mL
concentration at 0.5 hr [3]: 817 ng/mL
concentration at 0.5 hr [4]: 744 ng/mL
concentration at 0.83 hr [3]: 123 ng/mL
concentration at 0.83 hr [4]: 102 ng/mL
concentration at 1 hr [4]: 415 ng/mL
concentration at 1.5 hr [3]: 123 ng/mL
concentration at 1.5 hr [4]: 93 ng/mL
concentration at 2 hr [3]: 52.1 ng/mL
concentration at 2 hr [4]: 61 ng/mL
concentration at 0.25 hr [5]: 96 ng/mL
concentration at 0.5 hr [5]: 134 ng/mL
concentration at 0.83 hr [5]: 38.7 ng/mL
concentration at 1 hr [5]: 86.4 ng/mL
concentration at 1.5 hr [6]: 59.6 ng/mL
concentration at 1.5 hr [5]: 61.1 ng/mL
concentration at 2 hr [6]: 60.2 ng/mL
concentration at 2 hr [5]: 52.1 ng/mL
concentration at 0.25 hr [7]: 60.9 ng/mL
concentration at 0.25 hr [8]: 59.3 ng/mL
concentration at 0.5 hr [8]: 66.3 ng/mL
concentration at 0.83 hr [7]: 55.3 ng/mL
concentration at 0.83 hr [8]: 52.2 ng/mL
concentration at 1 hr [8]: 63.7 ng/mL
concentration at 1.5 hr [8]: 47.5 ng/mL
concentration at 2 hr [8]: 51.4 ng/mL
bioavailability (male, Sprague-Dawley, rat, in vivo, inherent absolute bioavailability): < 2%
C0 (male, Sprague-Dawley, rat, in vivo, iv, 1.5 mg, C0, IV 1.5 mg/animal, Normal Saline, Ex.5, individual rats): 33400 ng/mL
C0 (male, Sprague-Dawley, rat, in vivo, iv, 1.5 mg, C0, IV 1.5 mg/animal, Normal Saline, Ex.5, mean): 30900 ± 3440 ng/mL
clearance [9]: 8.17 mL/min/kg
clearance [10]: 8.17 mL/min/kg
Vd [9]: 0.21 L/kg
Vd [10]: 0.24 ± 0.02 L/kg
half-life (male, Sprague-Dawley, rat, in vivo, iv, 1.5 mg, t1/2, IV 1.5 mg/animal, Normal Saline, Ex.5, individual rats): 30.6 min
half-life (male, Sprague-Dawley, rat, in vivo, iv, 1.5 mg, t1/2, IV 1.5 mg/animal, Normal Saline, Ex.5, mean): 29.4 ± 1.8 min
Tmax [9]: 0 min
Tmax [10]: 0 min
concentration at 0.033 hr [11]: 26900 ng/mL
concentration at 0.033 hr [12]: 24800 ng/mL
concentration at 0.083 hr (male, Sprague-Dawley, rat, in vivo, iv, IV 1.5 mg/animal, Normal Saline, Ex.5, 0.083 hr, individual rats): 19400 ng/mL
concentration at 0.083 hr (male, Sprague-Dawley, rat, in vivo, iv, IV 1.5 mg/animal, Normal Saline, Ex.5, 0.083 hr, mean): 17900 ng/mL
concentration at 0.25 hr [11]: 11700 ng/mL
concentration at 0.25 hr [12]: 11200 ng/mL
concentration at 0.5 hr [11]: 6610 ng/mL
concentration at 0.5 hr [12]: 6450 ng/mL
concentration at 1 hr [11]: 1650 ng/mL
concentration at 1 hr [12]: 2100 ng/mL
concentration at 1.5 hr [11]: 709 ng/mL
concentration at 1.5 hr [12]: 817 ng/mL
concentration at 2 hr [11]: 423 ng/mL
concentration at 2 hr [12]: 513 ng/mL
